The subject of assay [1] is bone marrow cells of Paget's disease of bone patients. The assay is described as follows: Osteoclast formation induced by 1α,25-dihydroxyvitamin D3 in bone marrow cultures from Paget's disease of bone patients. Format: cell-based, human. The conditions noted are these: for osteoclast formation (average number of cells ± S.D.): Paget's marrow. The source says:
(§1) Mononuclear cells were fractionated from bone marrow cells of healthy normal persons according to a method of Kurihara et al. (Endocrinology, vol. 126, 2733-2741 (1990)). Briefly, bone marrow cells were obtained from normal persons, a mononuclear cell fraction was collected by Hypaque-Ficoll density gradient centrifugation, the cell fraction was washed with α-Minimal Essential Media (α-MEM) 3 times, and the cells dispersed in α-MEM containing 10% fetal bovine serum. This mononuclear cell suspension was seeded in 100-mm tissue culture plates, the culture plate was kept for 90 minutes at 37° C. in a 4% CO2-air atmosphere, and the non-adherent cells were collected. The non-adherent mononuclear cells were dispersed into α-MEM culture medium containing 20% horse serum at 10^6 cells/ml, the cell suspension was seeded into 96-well multi plates at 100 μl/well.
The capacity of the compound 11 (23S isomer) to inhibit osteoclast formation induced by 1α,25-dihydroxyvitamin D3 was evaluated as follows: Various concentrations of 1α,25-dihydroxyvitamin D3, various concentrations of compound 11 ([…]) solution were added to each well. The culture medium was replaced twice weekly and the cultures continued for 3 weeks at 37° C. in an atmosphere of 4% CO2-air. Osteoclasts that formed were identified by their capacity to bind the 23C6 antibody. The nuclei were counter stained with methyl green. Cells that reacted with the 23C6 antibody and had 3 or more nuclei were scored as osteoclasts.
Bone marrow cells were obtained from involved bones of patients with Paget's disease of bone and processed and cultured as described above for normal bone cells. The cultures were treated in an identical manner with 1α,25-dihydroxyvitamin D3 and/or compound 11 (23S isomer) as described in Example 1.
Bone marrow cultures were performed as described in Example 1, with the exception that different types of vitamin D antagonists were added to at varying concentrations to bone marrow cultures stimulated with 1α,25-dihydroxyvitamin D3. The bone marrow cells were taken from involved bones of patients with Paget's disease of bone and the cultures were performed as described in Example 2. There are two diastereoisomers, based on the asymmetric carbon at the 23 position, in compounds 13 and 16. The isomer having the shorter retention time on reverse phase HPLC analysis was the more polar isomer and the isomer having the longer retention time was the less polar isomer.

The test system of assay [2] is bone marrow cells of normal persons. The assay is described as follows: Osteoclast formation induced by 1α,25-dihydroxyvitamin D3 in normal human bone marrow cultures. Format: cell-based. The conditions noted are these: for osteoclast formation (average number of cells ± S.D.): compound alone, normal marrow, 3 weeks.
From the text: as §1, with “μl/well. The capacity of the compound 11 (23S isomer) to inhibit osteoclast formation induced by 1α,25-dihydroxyvitamin D3 was evaluated as follows: Various concentrations of 1α,25-dihydroxyvitamin D3, various concentrations of compound 11 (23S isomer) or a combination of 10^−8 M 1α,25-dihydroxyvitamin D3 solution and various concentrations of compound 11 (23S isomer) solution were added to each well. The culture medium was replaced twice weekly and the cultures continued for 3 weeks at 37° C. in an atmosphere of 4% CO2-air. Osteoclasts that formed were identified by their capacity to bind the 23C6 antibody. The nuclei were counter stained with methyl green. Cells that reacted with the 23C6 antibody and had 3 or more nuclei were scored as osteoclasts.” for “μl/well.”

The next assay relates to vitamin D deficient rats. The assay is described as follows: Bone resorption (serum calcium) induced by 1α,25-dihydroxyvitamin D3 in vitamin D deficient rats. Format: in vivo, Wistar rats. As to the method: Four-week-old male Wistar rats purchased from Japan SLC (Shizuoka, in Japan) were used. The animals were kept in wire-net cages (three animals in a cage) and raised for 7 weeks with free access to a vitamin D-deficient diet (Ca, 0.0036%; P, 0.3%; Harlan Taklad Research Diet, Madison, Wis., U.S.A.) and drinking water (well water treated with hypochlorite of […]±0.2 ppm). Temperature was kept at 23±1° C. and the humidity at 55±10%. Five animals were used for each experimental group. The control animals received intravenously administered solvent (5% ethanol-0.1% Triton X-100-physiological saline solution), and the experimental animals were intravenously administered 1α,25-dihydroxyvitamin D3 at a dose of 0.25 μg/kg. For animals receiving vitamin D derivatives, compound 11 (23S isomer) was administered intravenously at a dose of 2 μg/kg, 10 μg/kg or 50 μg/kg, or the compound 11 (23S isomer) with or without 1α,25-dihydroxyvitamin D3 at a dose of 0.25 μg/kg. The volume was 2 ml/kg for each animal. 24 hours after administration, a blood sample was taken out from abdominal descending aorta under ether anesthesia, the serum was collected according to conventional methods, and the calcium concentration in the serum was measured. The calcium concentrations were measured according to OCPC-method (Am. J. Clin. Pathol., vol. 45, 290-296 (1966)) with an autoanalyzer (type 7070, manufactured by Hitachi Seisakusho).

Where [3] appears, read: 10^−10 M 1α,25-dihydroxyvitamin D3 + compound 10^−7 M.
Where [4] appears, read: 10^−10 M 1α,25-dihydroxyvitamin D3 + compound 10^−8 M.
Setting [5] is: 10^−10 M 1α,25-dihydroxyvitamin D3 + compound 10^−9 M.
Setting [6] is: compound alone, Paget's marrow cultures.

With `C=C1CC(CC(C)C2CCC3C(=CC=C4CC(O)CC(O)C4=C)CCCC32C)CC1=O` (single isomer, unassigned; less polar) [compound 13 (less polar isomer)], the “osteoclast formation (average number of cells ± S.D.)” value in assay [1] (setting [3]) worked out at 14 ± 1 cells; in assay [1] (setting [4]), 70 ± 2 cells; in assay [1] (setting [5]) it was 127 ± 4 cells; in assay [1] (compound alone, 10^−7 M) it was 1 ± 1 cells; in assay [1] (compound alone, 10^−8 M), 6 ± 2 cells; in assay [1] (compound alone, 10^−9 M), 7 ± 1 cells. The “induction of osteoclast formation by the compound alone (in words)” value (shortened to “induction of osteoclast formation”) in assay [1] (Paget's marrow cultures) was “did not induce the osteoclast formation”. For the same compound, the “effect on basal osteoclast formation (in words)” value (“effect” for short) in assay [1] (setting [6]) is listed as “inhibited basal osteoclast formation”.

Regarding `C=C1CC(CC(C)C2CCC3C(=CC=C4CC(O)CC(O)C4=C)CCCC32C)CC1=O` (single isomer, unassigned; more polar) [compound 13 (more polar isomer)], the “osteoclast formation (average number of cells ± S.D.)” value stood at 31 ± 5 cells in assay [1] (setting [3]); 79 ± 9 cells in assay [1] (setting [4]); 152 ± 12 cells in assay [1] (setting [5]); 3 ± 4 cells in assay [1] (compound alone, 10^−7 M); 25 ± 4 cells in assay [1] (compound alone, 10^−8 M); 44 ± 5 cells in assay [1] (compound alone, 10^−9 M). Also, in assay [1] (Paget's marrow cultures), the “induction of osteoclast formation” value is given as “did not induce the osteoclast formation”. Also, the “effect” value in assay [1] (setting [6]) is given as “inhibited basal osteoclast formation”.

`C=C1/C(=C\C=C2/CCC[C@]3(C)[C@@H]([C@H](C)CCCC(C)(C)O)CC[C@@H]23)C[C@@H](O)C[C@@H]1O` [1α,25-dihydroxyvitamin D3, reference compound]: the “osteoclast formation at 10^−10 M (in words)” value is “is not induced” in assay [2] (10^−10 M, bone marrow cells of normal persons) and “is induced” in assay [1] (10^−10 M, bone marrow cells from Paget's disease of bone patients). The “osteoclast formation (average number of cells ± S.D.)” value was determined as 91 ± 7 cells in assay [2] (10^−7 M); 87 ± 12 cells in assay [2] (10^−8 M); 34 ± 6 cells in assay [2] (10^−9 M); 11 ± 2 cells in assay [2] (10^−10 M); 13 ± 3 cells in assay [2] (10^−11 M); 205 ± 6 cells in assay [1] (compound alone, 10^−7 M). Also, the “osteoclast formation (average number of cells ± S.D.)” value was found to be 206 ± 16 cells in assay [1] (compound alone, 10^−8 M); 211 ± 25 cells in assay [1] (compound alone, 10^−9 M); 180 ± 15 cells in assay [1] (compound alone, 10^−10 M); 134 ± 14 cells in assay [1] (compound alone, 10^−11 M). Also, the “concentration at which osteoclast formation was maximal” value in assay [2] (normal marrow cultures) was 10^−8 M. Moreover, in assay [1] (Paget's marrow cultures), the “lowest concentration inducing osteoclast formation” value is recorded as 10^−11 M. Further, in the assay on vitamin D deficient rats (0.25 μg/kg, 24 hours after receiving), the “serum calcium concentration compared to controls (in words)” value is on record as “significant increased serum calcium concentration”. Moreover, the “serum Ca concentration” value with vitamin D deficient rats (compound alone, 0.25 μg/kg intravenously, 24 hours after administration) came to 5.42 ± 0.12 mg/100 ml serum.

For the compound `C=C1CC(CC(C)C2CCC3C(=CC=C4CC(O)CC(O)C4=C)CCCC32C)OC1=O` (stereo not drawn) [compound 11 (23R isomer)], the “osteoclast formation (average number of cells ± S.D.)” value in assay [1] (setting [3]) was 18 ± 9 cells; in assay [1] (setting [4]), 70 ± 12 cells; in assay [1] (setting [5]) it was 145 ± 8 cells; in assay [1] (compound alone, 10^−7 M), 1 ± 1 cells; in assay [1] (compound alone, 10^−8 M), 20 ± 3 cells; in assay [1] (compound alone, 10^−9 M), 32 ± 3 cells. The “induction of osteoclast formation” value in assay [1] (Paget's marrow cultures) is reported as “did not induce the osteoclast formation”. Also, the “effect” value in assay [1] (setting [6]) is “inhibited basal osteoclast formation”.

Source of the values: patent publication US20040019024A1, “Use of vitamin d derivatives as bone resorption inhibitors” (priority 2000, published 2004).
